Calls of active or inactive are those of the source. The rule behind the calls is not given here.
Experiments:
[1] = molecular target: T1, Dopamine receptor (Homo sapiens) (UniProt P14416+P35462+P21918+P21917+P21728); assay: […] inhibitory activity against dopamine receptor in isolated cat atria; active; conditions: Felis catus; target entry is the homologue from another species
Felis catus [2] = assay: Compound tested in vivo for sympathetic neuronal activity in cat cardioaccelerator nerve after iv administration; assay type: functional; conditions: Sympathetic neuron
Felis catus [3] = assay: Compound tested in vitro for sympathetic neuronal activity in cat atria […]; assay type: functional; conditions: Sympathetic neuron, read-out: ED50 (the source's name)
Felis catus [4] = assay: Compound tested in vivo for sympathetic neuronal activity in cat cardioaccelerator nerve after intraduodenal administration; assay type: functional; conditions: Sympathetic neuron
[5] = molecular target: T1, Dopamine receptor (Homo sapiens); assay: […] inhibitory activity against dopamine receptor in isolated cat atria; inactive; conditions: Felis catus; target entry is the homologue from another species
Felis catus [6] = assay: Compound tested in vitro for sympathetic neuronal activity in cat atria […]; no inhibition with concentrations uM; assay type: functional; conditions: Sympathetic neuron

| SMILES | Activity [1] | ED50 (Felis catus [2]) | EC50 (Felis catus [3]) | ED50 (Felis catus [4]) | Activity [5] | ED50 (Felis catus [6]) |
| --- | --- | --- | --- | --- | --- | --- |
| CCCN(CCC)CCc1cc(O)cc2[nH]ccc12 | Active | 0.019 µmol/kg | 27 nM | 0.047 µmol/kg |  |  |
| CN1C[C@H](CC#N)C[C@@H]2c3cccc4[nH]c(Cl)c(c34)C[C@H]21 [LERGOTRILE] |  | 0.27 µmol/kg |  |  |  |  |
| CCCN(CCC)CCc1cccc2[nH]ccc12 |  | 0.22 µmol/kg |  |  | inactive | inactive |
